Laboratory results reported in US10899754B2, “Modulators of indoleamine 2,3-dioxygenase” (GLAXOSMITHKLINE INTELLECTUAL PROPERTY DEVELOPMENT LIMITED, priority 2016, dated 2021).

Assays:
[1] = system: human peripheral blood mononuclear cells (PBMC); assay: PBMC cytotoxicity assay (CellTiter-Glo); format: cell-based; details: 2 days, pCC50
Procedure: (§1) Compounds of the present invention were tested via high-throughput cellular assays utilizing detection of kynurenine via mass spectrometry and cytotoxicity as end-points. For the mass spectrometry and cytotoxicity assays, human peripheral blood mononuclear cells (PBMC) (PB003F; AllCells®, Alameda, Calif.) were stimulated with human interferon-γ (IFN-γ) (Sigma-Aldrich Corporation, St. Louis, Mo.) and lipopolysaccharide from Salmonella minnesota (LPS) (Invivogen, San Diego, Calif.) to induce the expression of indoleamine 2, 3-dioxygenase (IDO1). Compounds with IDO1 inhibitory properties decreased the amount of kynurenine produced by the cells via the tryptophan catabolic pathway. Cellular toxicity due to the effect of compound treatment was measured using CellTiter-Glo® reagent (CTG) (Promega Corporation, Madison, Wis.), which is based on luminescent detection of ATP, an indicator of metabolically active cells.
(§2) In preparation for the assays, test compounds were serially diluted 3-fold in DMSO from a typical top concentration of 1 mM or 5 mM and plated at 0.5 μL in 384-well, polystyrene, clear bottom, tissue culture treated plates with lids (Greiner Bio-One, Kremsmünster, Austria) to generate 11-point dose response curves. Low control wells (0% kynurenine or 100% cytotoxicity) contained either 0.5 μL of DMSO in the presence of unstimulated (−IFN-γ/−LPS) PBMCs for the mass spectrometry assay or 0.5 μL of DMSO in the absence of cells for the cytotoxicity assay, and high control wells (100% kynurenine or 0% cytotoxicity) contained 0.5 μL of DMSO in the presence of stimulated (+IFN-γ/+LPS) PBMCs for both the mass spectrometry and cytotoxicity assays.
(§3) Frozen stocks of PBMCs were washed and recovered in RPMI 1640 medium (Thermo Fisher Scientific, Inc., Waltham, Mass.) supplemented with 10% v/v heat-inactivated fetal bovine serum (FBS) (Thermo Fisher Scientific, Inc., Waltham, Mass.), and 1× penicillin-streptomycin antibiotic solution (Thermo Fisher Scientific, Inc., Waltham, Mass.). The cells were diluted to 1,000,000 cells/mL in the supplemented RPMI 1640 medium. 50 μL of either the cell suspension, for the mass spectrometry assay, or medium alone, for the cytotoxicity assay, were added to the low control wells, on the previously prepared 384-well compound plates, resulting in 50,000 cells/well or 0 cells/well respectively. IFN-γ and LPS were added to the remaining cell suspension at final concentrations of 100 ng/ml and 50 ng/ml respectively, and 50 μL of the stimulated cells were added to all remaining wells on the 384-well compound plates. The plates, with lids, were then placed in a 37° C., 5% CO2 humidified incubator for 2 days.
(§4) Following incubation, the 384-well plates were removed from the incubator and allowed to equilibrate to room temperature for 30 minutes. For the cytotoxicity assay, CellTiter-Glo® was prepared according to the manufacturer's instructions, and 40 μL were added to each plate well. After a twenty minute incubation at room temperature, luminescence was read on an EnVision® Multilabel Reader (PerkinElmer Inc., Waltham, Mass.). For the mass spectrometry assay, 10 μL of supernatant from each well of the compound-treated plates were added to 40 μL of acetonitrile, containing 10 μM of an internal standard for normalization, in 384-well, polypropylene, V-bottom plates (Greiner Bio-One, Kremsmünster, Austria) to extract the organic analytes. Following centrifugation at 2000 rpm for 10 minutes, 10 μL from each well of the acetonitrile extraction plates were added to 90 μL of sterile, distilled H2O in 384-well, polypropylene, V-bottom plates for analysis of kynurenine and the internal standard on the RapidFire 300 (Agilent Technologies, Santa Clara, Calif.) and 4000 QTRAP MS (SCIEX, Framingham, Mass.). MS data were integrated using Agilent Technologies' RapidFire Integrator software, and data were normalized for analysis as a ratio of kynurenine to the internal standard. […]

[2] = biological target: indoleamine 2, 3-dioxygenase (IDO1) (Homo sapiens, UniProt P14902); assay: IDO1 PBMC RapidFire MS assay (kynurenine detection by mass spectrometry); format: cell-based; parameters: to induce the expression of indoleamine 2, 3-dioxygenase (IDO1); host or cells: human PBMC stimulated with IFN-gamma and LPS; details: human PBMC stimulated with IFN-γ and LPS, 2 days, pIC50, read-out: PBMC PXC50 (converted)
Procedure: IDO1 PBMC RapidFire MS Assay
as §1, §2, §3, §4

indoleamine 2, 3-dioxygenase (IDO1), sequence (P14902 whole entry): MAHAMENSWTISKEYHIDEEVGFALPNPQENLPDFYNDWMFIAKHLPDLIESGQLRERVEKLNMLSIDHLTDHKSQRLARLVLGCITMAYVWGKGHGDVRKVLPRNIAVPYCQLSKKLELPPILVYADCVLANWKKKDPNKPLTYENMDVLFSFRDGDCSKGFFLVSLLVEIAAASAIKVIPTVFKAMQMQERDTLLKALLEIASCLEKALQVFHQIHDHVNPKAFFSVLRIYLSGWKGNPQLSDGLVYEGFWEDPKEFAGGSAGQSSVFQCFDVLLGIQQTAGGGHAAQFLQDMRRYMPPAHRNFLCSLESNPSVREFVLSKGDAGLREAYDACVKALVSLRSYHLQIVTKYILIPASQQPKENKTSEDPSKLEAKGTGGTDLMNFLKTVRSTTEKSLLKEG

Row | IC50 [2] | Structure (SMILES) | PBMC TOX PXC50 [1]
1 | 0.0794 µM | CC(C)CN(c1ccc([C@H](C)CC(=O)O)cc1Nc1cnc(C(N)=O)cn1)C1CCOCC1 [example 264, (3R)-3-{3-[(5-carbamoylpyrazin-2-yl)amino]-4-[(2-methylpropyl)(oxan-4-yl)amino]phenyl}butanoic acid] | <5
2 | 0.02 µM | CC(C)CN(CCCCCNC(=O)c1ccc(C2(C(F)(F)F)N=N2)cc1)c1ccc([C@H](C)CC(=O)O)cc1Nc1nc(C(F)(F)F)ns1 [example 255, (3R)-3-{4-[(2-methylpropyl)[5-({4-[3-(trifluoromethyl)-3H-diazirin-3-yl]phenyl}formamido)pentyl]amino]-3-{[3-(trifluoromethyl)-1,2,4-thiadiazol-5-yl]amino}phenyl}butanoic acid] | <4.3
3 | 7.94 µM | CC(C)CN(c1ccc([C@H](C)CC(=O)O)cc1Nc1n[nH]c(C(N)=O)n1)[C@H]1CC[C@H](O)CC1 (racemic) [example 225, (3RS)-3-{3-[(5-carbamoyl-1H-1,2,4-triazol-3-yl)amino]-4-[(2-methylpropyl)[(1rs&,4rs&)-4-hydroxycyclohexyl]amino]phenyl}butanoic acid] | <5
4 | 0.0316 µM | CC(C)CN(c1ccc([C@H](C)CC(=O)O)cc1Nc1nnc(C(N)=O)s1)C1CCOCC1 [example 261, (3R)-3-{3-[(5-carbamoyl-1,3,4-thiadiazol-2-yl)amino]-4-[(2-methylpropyl)(oxan-4-yl)amino]phenyl}butanoic acid] | <5
5 | 0.2 µM | CNC(=O)c1n[nH]c(Nc2cc([C@H](C)CC(=O)O)ccc2N(CC(C)C)C2CCOCC2)n1 [example 237, (3R)-3-(3-{[3-(methylcarbamoyl)-1H-1,2,4-triazol-5-yl]amino}-4-[(2-methylpropyl)(oxan-4-yl)amino]phenyl)butanoic acid] | <5
6 | 0.0251 µM | CNC(=O)c1nc(Nc2cc([C@H](C)CC(=O)O)ccc2N(CC(C)C)[C@H]2CC[C@@H](OC)CC2)n[nH]1 (racemic) [example 246, (3RS)-3-(3-{[5-(methylcarbamoyl)-1H-1,2,4-triazol-3-yl]amino}-4-[(2-methylpropyl)[(1rs&,4rs&)-4-methoxycyclohexyl]ami-no]phenyl)butanoic acid] | <5
7 | 0.0398 µM | CC(C)CN(c1ccc(-c2ccncc2C(=O)O)cc1Nc1nc(C(F)(F)F)ns1)C1CCOCC1 [example 267, 4-{4-[(2-methylpropyl)(oxan-4-yl)amino]-3-{[3-(trifluoromethyl)-1,2,4-thiadiazol-5-yl]amino}phenyl}pyridine-3-carboxylic acid] | <5
8 | 0.0501 µM | CC(C)CN(c1ccc(C(C)CC(=O)O)cc1Nc1nnc(C(=O)N(C)C)s1)C1CCCCC1 (stereo not shown) [example 244, 3-{4-[cyclohexyl(2-methylpropyl)amino]-3-{[5-(dimethylcarbamoyl)-1,3,4-thiadiazol-2-yl]amino}phenyl}butanoic acid] | 5.7

Further lines, the compound ahead of its results:

Row | Structure (SMILES) | IC50 [2] | PBMC TOX PXC50 [1]
9 | CC(C)CN(c1ccc([C@H](C)CC(=O)O)cc1Nc1ccc(C#N)nc1)C1CCOCC1 [Example 13, (R)-3-(3-((6-cyanopyridin-3-yl)amino)-4-(isobutyl(tetrahydro-2H-pyran-4-yl)amino)phenyl)butanoic Acid] | 0.00126 µM | <5
10 | CC(C)CN(c1ccc([C@H](C)CC(=O)NS(C)(=O)=O)cc1Nc1nc(C(F)(F)F)ns1)C1CCOCC1 [Example 107, (R)-3-(4-(Isobutyl(tetrahydro-2H-pyran-4-yl)amino)-3-((3-(trifluoromethyl)-1,2,4-thiadiazol-5-yl)amino)phenyl)-N-(methylsulfonyl)butanamide] | 0.00631 µM | 5.3
11 | CO[C@H]1CC[C@H](N(CC(C)C)c2ccc([C@H](C)CC(=O)O)cc2Nc2n[nH]c(C(F)(F)F)n2)CC1 [Example 52] | 0.01 µM | <5
12 | CO[C@H]1CC[C@H](N(CC(C)C)c2ccc([C@H](C)CC(=O)O)cc2Nc2n[nH]c(C(N)=O)n2)CC1 (racemic) [example 223, (3RS)-3-{3-[(5-carbamoyl-1H-1,2,4-triazol-3-yl)amino]-4-[(2-methylpropyl)[(1rs&,4rs&)-4-methoxycyclohexyl]ami-no]phenyl}butanoic acid] | 0.501 µM | <5
13 | CO[C@H](C)CN(CC(C)C)c1ccc([C@H](C)CC(=O)O)cc1Nc1nc(C(F)(F)F)ns1 [Example 96, (R)-3-(4-(isobutyl((R)-2-methoxypropyl)amino)-3-((3-(trifluoromethyl)-1,2,4-thiadiazol-5-yl)amino)phenyl)butanoic Acid] | 0.01 µM | <5
14 | CC(C)CN(c1ccc([C@H](C)CC(=O)O)cc1Nc1n[nH]c(C#N)n1)[C@H]1CC[C@H](O)CC1 (racemic) [example 224, (3RS)-3-{3-[(5-cyano-1H-1,2,4-triazol-3-yl)amino]-4-[(2-methylpropyl)[(1rs&,4rs&)-4-hydroxycyclohexyl]amino]phenyl}butanoic acid] | 1.58 µM | <5
15 | CC(C)CN(c1ccc([C@H](C)CC(=O)O)cc1Nc1nc(C(F)(F)F)ns1)C1CCN(C(=O)C2CC2)CC1 [Example 64, (R)-3-(4-((1-(cyclopropanecarbonyl)piperidin-4-yl) (isobutyl)amino)-3-((3-(trifluoromethyl)-1,2,4-thiadiazol-5-yl)amino)phenyl)butanoic Acid] | 0.001 µM | <5
16 | CC(C)CN(c1ccc([C@H](C)CC(=O)O)cc1Nc1n[nH]c(C(N)=O)n1)C1CCCCC1 [Example 84, (R)-3-(3-((5-carbamoyl-1H-1,2,4-triazol-3-yl)amino)-4-(cyclohexyl(isobutyl)amino)phenyl)butanoic Acid] | 0.00794 µM | <5
17 | CC(C)CN(c1ccc([C@H](C)CC(=O)O)cc1Nc1ccc(Cl)c(F)n1)C1CCOCC1 [Example 14, (R)-3-(3-((5-chloro-6-fluoropyridin-2-yl)amino)-4-(isobutyl(tetrahydro-2H-pyran-4-yl)amino)phenyl)butanoic acid] | 0.00126 µM | <5
18 | CC(C)CN(c1ccc([C@H](C)CC(=O)O)cc1Nc1ccc(C#N)nn1)C1CCOCC1 [Example 24, (R)-3-(3-((6-cyanopyridazin-3-yl)amino)-4-(isobutyl(tetrahydro-2H-pyran-4-yl)amino)phenyl)butanoic Acid] | 0.00251 µM | <5
19 | CO[C@H]1CC[C@H](N(CC(C)C)c2ccc([C@H](C)CC(=O)O)cc2Nc2ccc(C#N)cn2)CC1 [Example 56, (R)-3-(3-((5-cyanopyridin-2-yl)amino)-4-(isobutyl((1r,4R)-4-methoxycyclohexyl)amino)phenyl)butanoic Acid] | 0.00398 µM | <5
20 | CC(C)CN(c1ccc([C@H](C)CC(=O)O)cc1Nc1cnc(Cl)nc1)C1CCOCC1 [Example 10, (R)-3-(3-((2-chloropyrimidin-5-yl)amino)-4-(isobutyl(tetrahydro-2H-pyran-4-yl)amino)phenyl)butanoic Acid] | 0.000794 µM | <5
